Measured values taken from paper PMC7993833, “EDP-938, a novel nucleoprotein inhibitor of respiratory syncytial virus, demonstrates potent antiviral activities in vitro and in a non-human primate model” (PLoS Pathogens, 2021).
Entries after “also recorded” stand apart in the source; their conditions may differ. Where two headings read alike, the source gives them in different places.

Assays:
RSV-B VR-955 = assay: RT-qPCR assay, RSV-B VR-955 in A549 cells; assay type: cell-based; conditions: human respiratory syncytial virus
Protocol: HEp-2, Vero, and BHK were seeded at 8,000 cells per well (cpw) in growth medium (Dulbecco’s Modified Eagle Medium (DMEM) with 1% GlutaMAX, 1% Penicillin/Streptomycin (P/S), 1% Non-Essential Amino Acids (NEAA), 10% Fetal Bovine Serum (FBS)) or (Minimum Essential Medium (MEM) with 10% FBS, 1% NEAA, 1% P/S) or (Eagle’s Minimum Essential Medium with L-Glutamine, with 10% FBS, 1% P/S) respectively. A549 seeded at 3,000 cpw in F-12K Kaighn’s Modification nutrient mixture with 10% FBS, 1% NEAA, 1% P/S. Cells seeded at time of infection in 96-well plates, final well volume 100μL. Compounds suspended in DMSO, serially diluted and added to wells at 0.5% final DMSO concentration. Viral stocks stabilized with 25% sucrose, previously titered using plaque assay, were added at desired MOI. Sucrose added to cells-only control wells to match percent added with virus. Unless otherwise noted, RSV-A strains were tested at 0.1 MOI and incubated for 5 days in a 37°C, 5% CO2 humidified incubator, and RSV-B at 0.5 MOI for 6 days. Cytopathic effect (CPE) determined using ATPlite (Perkin Elmer) measured with Envision luminometer. For RT-qPCR, RNA was extracted from whole well using Ambion RNAqueous-96 Automated Kit, and RT-qPCR run using Applied Biosystems TaqMan RNA-to-CT 1-Step Kit. […] All EC50s were calculated using the XLFit four-parameter logistic model 200 in Microsoft Excel.

RSV-A Long [1] = assay: RT-qPCR assay, RSV-A Long in Vero cells; assay type: cell-based; conditions: human respiratory syncytial virus
RSV-A Long [2] = assay: RT-qPCR assay, RSV-A Long in primary neonatal lamb bronchial epithelial cells; assay type: cell-based; conditions: human respiratory syncytial virus, Epithelial cell
[3] = test system: RSV-B VR-955 EDP-938 resistant populations; assay: Susceptibility of EDP-938 resistant RSV-B VR-955 populations; assay type: cell-based, respiratory syncytial virus
RSV-A Long [4] = assay: In vitro combination study (CPE, Loewe additivity, CalcuSyn); assay type: cell-based, respiratory syncytial virus
Protocol: The combination effect of EDP-938 with other RSV inhibitors of different mechanisms/targets was investigated in vitro. RSV-A Long infected HEp-2 cells were treated with various concentrations of EDP-938 either alone or in combination with the fusion inhibitor GS-5806, non-nucleoside L polymerase inhibitor AZ-27, nucleoside inhibitor ALS-8112 [38], ribavirin, or palivizumab. The combination of two compounds always led to a greater inhibition than a single agent alone.
To determine whether the effect of the combination was synergistic, additive or antagonistic, the data were analyzed by the Loewe additivity model using Calcusyn software, which gave a Combination Index (CI) value at various effective concentrations of the compounds. […] As an experimental control, adding EDP-938 to itself was additive. For details see S4 Table.
As described above with 8,000 HEp-2 cpw, 0.1 MOI RSV-A Long, 5-day endpoint, and CPE readout. Compounds added in serial 1.3-fold 6-point dilutions across both X- and Y-axes of plate. Plates run in quadruplicate with one uninfected plate for cytotoxicity. Combination indexes calculated using Loewe additivity model using CalcuSyn software from Biosoft.

[5] = Plasma drug exposure in African Green monkey study; assay type: in vivo, African Green monkeys (Chlorocebus); conditions: both sexes, plasma, 100 mg/kg BID oral, read-out: mean plasma Ctrough
Excerpt: The African green monkey model was selected for EDP-938 in vivo studies for its higher level of viral replication versus cotton rats and BALB/c mice. […] In this previous trial, patients who achieved RSV-604 levels in excess of the EC90 experienced a 2.31 log reduction in viral load. […] The lack of antiviral activity observed with RSV-604 could be a function of relatively poor potency compared to EDP-938 (Fig 1) and/or insufficient tissue exposure. While in this study the animals were not sacrificed and thus the drug level in the lung could not be determined, plasma samples were taken at 12h after the last dose (Ctrough) to confirm drug exposure. […] It is reasonable to project that given the same dose or exposure EDP-938 should perform better than RSV-604 in RSV infected patients as well.
A study of EDP-938 and RSV-604 in the African Green monkey (AGM) animal model was performed by BIOQUAL, Inc (Rockville, Maryland). Methods were similar to those run in a study by Ispas et al.. Six (6) male and 6 female AGMs (Chlorocebus) of 4–5 kg were purchased from PrimGen (Hines, Illinois). Each animal was challenged with 2 x 10^5 PFU of RSV A2 viral inoculum (Virapur, San Diego, CA). Four animals (2 per sex) in each group were treated with EDP-938, RSV-604, or vehicle control (0.5% w/v methylcellulose). […]

[6] = test system: RSV mRNA transcription and genome replication; assay: RSV minigenome system; assay type: cell-based, respiratory syncytial virus
[7] = test system: recombinant RSV A2-line19F, N protein mutants
[8] = test system: recombinant RSV A2-line19F, N protein mutants; assay: microbe, parasite or virus in culture; conditions: human respiratory syncytial virus

O=C1Nc2ccccc2C(c2ccccc2)=N[C@@H]1Nc1nnc(-c2ncc(C(F)(F)F)cc2N2CCOCC2)o1 [EDP-938] showed an EC50 (RSV-B VR-955) of 83 ± 38 nM, an EC90 (RSV-B VR-955) of 170 ± 53 nM and an EC50 (RSV-A Long [1]) of 79 ± 12 nM. For the same compound, the EC90 (RSV-A Long [1]) was 118 ± 25 nM, the EC50 (RSV-A Long [2]; 144 h, RSV-A Long MOI 0.1, 6 days) was over 800 nM and the EC90 (RSV-A Long [2]; RSV-A Long) was over 800 nM. For the same compound, the “EC50 Fold Change vs. WT” value ([3]; RSV-B VR-955 Population 1, N: M109K, L139Q (dual WT/mutant population)) was 42 fold, the “EC50 Fold Change vs. WT” value ([3]; RSV-B VR-955 Population 2, N: M109T) was 6.6 fold and the “EC50 Fold Change vs. WT” value ([3]; RSV-B VR-955 Wild-Type) was 1 fold. The “combination effect (Combination Index)” value (RSV-A Long [4]; EDP-938 added to itself, CI 0.9–1.1 additivity, <0.9 synergy, >1.1 antagonism) was “additive; also recorded: additivity”, the “combination effect (Combination Index)” value (RSV-A Long [4]; EDP-938 combined with ALS-8112, AZ-27, GS-5806 or palivizumab) was “moderate levels of synergy” and the “combination effect (Combination Index)” value (RSV-A Long [4]; EDP-938 combined with ribavirin) was “additivity”. The concentration at 12 h after the last dose [5] was 1480 nM, the “effect on mRNA transcription or genome replication” value [6] was “had no effect” and the “EC50 Fold Change vs. WT” value ([7]; recombinant RSV N K107N) was 1.2 fold. For the same compound, the “EC50 Fold Change vs. WT” value ([7]; recombinant RSV N K136R) was 2.7 fold, the “EC50 Fold Change vs. WT” value ([7]; recombinant RSV N L139I) was 7.2 fold and the “EC50 Fold Change vs. WT” value ([7]; recombinant RSV N M109I) was 1.6 fold. For the same compound, the “EC50 Fold Change vs. WT” value ([7]; recombinant RSV N M109K) was 26.9 fold, the “EC50 Fold Change vs. WT” value ([7]; recombinant RSV N M109T) was 5.4 fold and the “EC50 Fold Change vs. WT” value ([7]; recombinant RSV N N105D) was 1.3 fold. For the same compound, the “EC50 Fold Change vs. WT” value ([7]; recombinant RSV N S134T) was 2.2 fold, the “EC50 Fold Change vs. WT” value ([7]; recombinant RSV N V90A) was 1.0 fold and the “EC50 Fold Change vs. WT” value ([7]; recombinant RSV Wild-type (WT)) was 1.0 fold. The EC50 ([8]; HEp-2, recombinant RSV N K107N) was 52 ± 6 nM, the EC50 ([8]; HEp-2, recombinant RSV N K136R) was 125 ± 20 nM and the EC50 ([8]; HEp-2, recombinant RSV N L139I) was 326 ± 83 nM. It also gave an EC50 ([8]; HEp-2, recombinant RSV N M109I) of 70 ± 26 nM, an EC50 ([8]; HEp-2, recombinant RSV N M109K) of 1220 nM and an EC50 ([8]; HEp-2, recombinant RSV N M109K mutant) of about 1200 nM. It also gave an EC50 ([8]; HEp-2, recombinant RSV N M109T) of 244 ± 61 nM, an EC50 ([8]; HEp-2, recombinant RSV N N105D) of 60 ± 44 nM and an EC50 ([8]; HEp-2, recombinant RSV N S134T) of 99 ± 26 nM. The EC50 ([8]; HEp-2, recombinant RSV N V90A) was 46 ± 29 nM and the EC50 ([8]; HEp-2, recombinant RSV Wild-type (WT), HEp2) was 45 ± 21 nM.
